Laboratory results taken from patent US9884843B2 (Peloton Therapeutics, Inc., priority 2013, dated 2018).
Read-outs that look alike come from different tables or passages of the source. Blank lines part the entries; values can stand above or below the compound they belong to.

Columns and labels:
[1] = test system: HIF-2α HIS TAG-PASB Domain; experiment: biochemical; format: binding
From the text: (§1) The term “scintillation proximity assay” (SPA) refers to a homogenous assay in which light is emitted when a radiolabeled ligand is brought into close proximity to a radiosensitive bead. The assay typically contains a target protein that contains a tag (e.g., His Tag, Glutathione S-transferase Tag). The tag on the protein is used to bind the target protein to the scintillation bead. Radiolabeled ligand (e.g., labeled with tritium) that binds to the protein is now in close proximity to the bead, and when the raidolabel (e.g., tritium) decays, the high energy particle hits the bead resulting in the emission of light that is detected by a detector, such as photomultiplier tube or CCD camera. When unlabeled ligands or compounds that bind to the protein are used in the assay, they displace the radiolabeled ligand, resulting in loss of signal.
(§2) The total assay volume was about 100 μL in the following configuration: 2-μL compound in DMSO, 88 μL buffer with protein and probe and 10 μL of SPA beads. […] To each compound, 88 μL of the buffer solution was then added. […] The percent inhibition was determined and IC50 values were calculated using the Dotmatics system based on the following equation: % inhibition=[(high control−sample)/(high control−low control)]×100.

[2] = test system: 786-O-Hif-Luc cells; experiment: Luciferase Assay (HIF responsive element reporter); format: cell-based; settings: read-out: Mean Luciferease EC50
Procedure: A pool of infected cells were then selected against 2 μg/mL of puromycin (P8833, Sigma) for 10 days followed by limited dilution to select single clones.
Each concentration was tested in triplicate. After about 24 hours, luciferase activity was determined using ONE-Glo Luciferase Assay Reagent (E6110, Promega) following the manufacturer's recommended procedure. EC50 were calculated by using Dotmatics software.

[3] = target: HIF-2α HIS TAG-PASB Domain (Homo sapiens, UniProt Q99814); experiment: biochemical; format: binding
HIF-2α HIS TAG-PASB Domain (Homo sapiens, UniProt Q99814), sequence (Q99814 whole entry, looked up, the tested form may be a part): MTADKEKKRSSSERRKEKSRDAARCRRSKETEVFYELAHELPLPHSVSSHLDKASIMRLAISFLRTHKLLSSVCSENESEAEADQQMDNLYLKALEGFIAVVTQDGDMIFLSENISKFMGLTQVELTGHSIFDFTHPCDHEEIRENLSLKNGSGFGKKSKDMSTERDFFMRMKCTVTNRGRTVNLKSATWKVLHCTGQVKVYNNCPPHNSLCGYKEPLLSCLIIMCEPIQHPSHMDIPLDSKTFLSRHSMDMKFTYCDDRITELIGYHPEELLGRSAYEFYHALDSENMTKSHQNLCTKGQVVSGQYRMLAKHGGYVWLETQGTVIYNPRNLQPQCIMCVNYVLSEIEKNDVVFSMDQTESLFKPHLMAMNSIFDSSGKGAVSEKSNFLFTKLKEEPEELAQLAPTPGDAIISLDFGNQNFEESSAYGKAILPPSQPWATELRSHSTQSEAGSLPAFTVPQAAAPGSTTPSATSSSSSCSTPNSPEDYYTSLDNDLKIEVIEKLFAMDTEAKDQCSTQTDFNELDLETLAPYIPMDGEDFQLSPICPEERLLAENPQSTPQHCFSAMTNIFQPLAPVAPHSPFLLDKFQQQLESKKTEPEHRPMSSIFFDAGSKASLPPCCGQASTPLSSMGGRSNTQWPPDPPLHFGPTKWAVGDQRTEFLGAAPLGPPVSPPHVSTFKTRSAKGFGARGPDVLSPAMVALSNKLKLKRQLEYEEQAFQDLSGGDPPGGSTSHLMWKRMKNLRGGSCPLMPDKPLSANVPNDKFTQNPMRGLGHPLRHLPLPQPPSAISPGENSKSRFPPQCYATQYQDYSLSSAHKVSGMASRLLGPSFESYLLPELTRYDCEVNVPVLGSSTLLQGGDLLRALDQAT
From the text: as §1, §2

[4] = displacement of Compound 120 probe, mean, read-out: Mean SPA IC50
[5] = 786-O-Hif-Luc cells, about 24 hours
[6] = 24 h, 786-O-Hif-Luc cells, about 24 hours

IC50 ([1]; unnumbered compounds listed by structure and name, read-out: IC50 value in SPA): > 100 µM
SMILES: O=S1(=O)C[C@@H](O)c2c1ccc(Oc1cc(F)cc(Cl)c1)c2Br [(3S)-4-bromo-5-(3-chloro-5-fluoro-phenoxy)-1,1-dioxo-2,3-dihydrobenzothiophen-3-ol]

IC50 [1, 4]: 0.045 µM
EC50 [2, 5]: 4.17 µM
SMILES: N#Cc1c(Oc2cc(F)cc(Cl)c2)ccc2c1C(O)C(F)(F)S2(=O)=O (stereo not drawn) [Compound 10, 5-(3-chloro-5-fluorophenoxy)-2,2-difluoro-3-hydroxy-2,3-dihydrobenzo[b]thiophene-4-carbonitrile 1,1-dioxide]

EC50 [2, 5]: 0.012 µM
SMILES: [2H]C1(O)c2c(ccc(Oc3cc(F)cc(C#N)c3)c2C(F)F)S(=O)(=O)C1(F)F (stereo not drawn) [Compound 40, 3-((4-(Difluoromethyl)-2,2-difluoro-3-hydroxy-1,1-dioxido-2,3-dihydrobenzo[b]thiophen-5-yl-3-d)oxy)-5-fluorobenzonitrile]

EC50 [2, 6]: 0.79 µM
SMILES: N#Cc1c(Oc2cc(F)cc(F)c2)ccc2c1C(O)C(F)S2(=O)=O (stereo not drawn) [Compound 44, 5-(3,5-Difluorophenoxy)-2-fluoro-3-hydroxy-2,3-dihydrobenzo[b]thiophene-4-carbonitrile 1,1-dioxide]

IC50 [3, 4]: 0.75 µM
EC50 [2, 6]: 0.49 µM
SMILES: N#Cc1c(Oc2cccc(F)c2)ccc2c1[C@@H](O)CS2(=O)=O [Compound 76, (R)-5-(3-fluorophenoxy)-3-hydroxy-2,3-dihydrobenzo[b]thiophene-4-carbonitrile 1,1-dioxide]

EC50 [2, 6]: 0.033 µM
SMILES: N#Cc1cccc(Oc2ccc3c(c2Br)[C@@H](O)C(F)(F)S3(=O)=O)c1 [Compound 84, (R)-3-((4-bromo-2,2-difluoro-3-hydroxy-1,1-dioxido-2,3-dihydrobenzo[b]thiophen-5-yl)oxy)benzonitrile]

EC50 [2, 6]: 0.88 µM
SMILES: N#Cc1cc(F)cc(Oc2ccc3c(c2F)C(O)C(F)(F)S3(=O)=O)c1 (stereo not drawn) [Compound 88, 3-Fluoro-5-((2,2,4-trifluoro-3-hydroxy-1,1-dioxido-2,3-dihydrobenzo[b]thiophen-5-yl)oxy)benzonitrile]

EC50 [2, 6]: 0.31 µM
SMILES: N#Cc1cc(Oc2ccc3c(c2C(F)F)[C@@H](O)C(F)(F)S3(=O)=O)ccc1F [Compound 91, (R)-5-((4-(Difluoromethyl)-2,2-difluoro-3-hydroxy-1,1-dioxido-2,3-dihydrobenzo[b]thiophen-5-yl)oxy)-2-fluorobenzonitrile]

EC50 [2, 6]: 0.048 µM
SMILES: CC1(O)c2c(ccc(Oc3cc(F)cc(C#N)c3)c2C#N)S(=O)(=O)C1(F)F (stereo not drawn) [Compound 105, 5-(3-Cyano-5-fluorophenoxy)-2,2-difluoro-3-hydroxy-3-methyl-2,3-dihydrobenzo[b]thiophene-4-carbonitrile 1,1-dioxide]

IC50 [3, 4]: 1.23 µM
EC50 [2, 6]: 4.6 µM
SMILES: N#Cc1cc(F)cc(Oc2ccc3c(c2C#N)C(N)C(F)(F)S3(=O)=O)c1 (stereo not drawn) [Compound 118, 3-Amino-5-(3-cyano-5-fluorophenoxy)-2,2-difluoro-2,3-dihydrobenzo[b]thiophene-4-carbonitrile 1,1-dioxide]

The next lines start with the compound.

SMILES: Cc1c(Oc2cc(F)cc(Cl)c2)ccc2c1C(O)C(F)(F)S2(=O)=O (stereo not drawn) [Compound 13, 5-(3-Chloro-5-fluorophenoxy)-2,2-difluoro-3-hydroxy-4-methyl-2,3-dihydrobenzo[b]thiophene 1,1-dioxide]
IC50 [1, 4]: 0.015 µM
EC50 ([2]; 24 h): 0.45 µM

SMILES: O=S1(=O)c2ccc(Oc3cc(F)cc(Cl)c3)cc2C(O)C1(F)F (stereo not drawn) [Compound 16, 5-(3-Chloro-5-fluorophenoxy)-2,2-difluoro-3-hydroxy-2,3-dihydrobenzo[b]thiophene 1,1-dioxide]
IC50 [1, 4]: 1.88 µM

SMILES: NC1c2c(ccc(Oc3cc(F)cc(F)c3)c2Br)S(=O)(=O)C1(F)F (stereo not drawn) [Compound 30, 3-Amino-4-bromo-5-(3,5-difluorophenoxy)-2,2-difluoro-2,3-dihydrobenzo[b]thiophene 1,1-dioxide]
IC50 [3, 4]: < 0.005 µM
EC50 [2, 5]: 1.7 µM

SMILES: N=S1(=O)c2ccc(Oc3cc(F)cc(F)c3)c(Br)c2C(O)C1(F)F (stereo not drawn) [Compound 31, 4-Bromo-5-(3,5-difluorophenoxy)-2,2-difluoro-3-hydroxy-1-imino-2,3-dihydro-1H-1λ^4-benzo[b]thiophene 1-oxide]
IC50 [3, 4]: 4.14 µM
EC50 [2, 6]: 0.54 µM

SMILES: O=S1(=O)c2ccc(Oc3cncc(Cl)c3)c(C(F)F)c2C(O)C1(F)F (stereo not drawn) [Compound 35, 5-((5-Chloropyridin-3-yl)oxy)-4-(difluoromethyl)-2,2-difluoro-3-hydroxy-2,3-dihydrobenzo[b]thiophene 1,1-dioxide]
IC50 [1, 4]: 0.23 µM
EC50 ([2]; 24 h): 0.15 µM

SMILES: N#Cc1cncc(Oc2ccc3c(c2C(F)F)C(O)C(F)(F)S3(=O)=O)c1 (stereo not drawn) [Compound 37, 5-((4-(Difluoromethyl)-2,2-difluoro-3-hydroxy-1,1-dioxido-2,3-dihydrobenzo[b]thiophen-5-yl)oxy)nicotinonitrile]
IC50 [1, 4]: 0.12 µM
EC50 [2, 5]: 0.17 µM

SMILES: N#Cc1cc(F)cc(Oc2ccc3c(c2C(F)F)C(=O)C(F)(F)S3(=O)=O)c1 [Compound 39, 3-((4-(Difluoromethyl)-2,2-difluoro-1,1-dioxido-3-oxo-2,3-dihydrobenzo[b]thiophen-5-yl)oxy)-5-fluorobenzonitrile]
IC50 [1, 4]: 2.42 µM
EC50 [2, 5]: 2.79 µM

SMILES: N#Cc1cc(F)cc(Oc2ccc3c(c2C(F)F)[C@@H](N)C(F)(F)S3(=O)=O)c1 [Compound 41, (R)-3-((3-Amino-4-(difluoromethyl)-2,2-difluoro-1,1-dioxido-2,3-dihydrobenzo[b]thiophen-5-yl)oxy)-5-fluorobenzonitrile]
EC50 [2, 5]: 0.14 µM

SMILES: [2H][C@@]1(O)c2c(ccc(Oc3cc(F)cc(C#N)c3)c2C(F)F)S(=O)(=O)C1(F)F [Compound 43, (R)-3-((4-(Difluoromethyl)-2,2-difluoro-3-hydroxy-1,1-dioxido-2,3-dihydrobenzo[b]thiophen-5-yl-3-d)oxy)-5-fluorobenzonitrile]
EC50 [2, 5]: 0.006 µM

SMILES: O=S1(=O)c2ccc(Oc3cc(F)cc(Cl)c3)c(Br)c2[C@H](O)C1(F)F [Compound 59, (3S)-4-Bromo-5-(3-chloro-5-fluoro-phenoxy)-2,2-difluoro-1,1-dioxo-3H-benzothiophen-3-ol]
IC50 [3, 4]: 0.06 µM
EC50 [2, 5]: 0.17 µM

SMILES: CC1(C)C(O)c2c(ccc(Oc3cc(F)cc(Cl)c3)c2Br)S1(=O)=O (stereo not drawn) [Compound 60, 4-Bromo-5-(3-chloro-5-fluoro-phenoxy)-2,2-dimethyl-1,1-dioxo-3H-benzothiophen-3-ol]
IC50 [1, 4]: 21.9 µM

SMILES: N#Cc1c(Oc2cc(F)cc(F)c2)ccc2c1[C@@H](O)CS2(=O)=O [Compound 68, (R)-5-(3,5-difluorophenoxy)-3-hydroxy-2,3-dihydrobenzo[b]thiophene-4-carbonitrile 1,1-dioxide]
IC50 [3]: 0.125 µM
EC50 [2, 6]: 0.37 µM

SMILES: COc1cc(F)cc(Oc2ccc3c(c2Br)[C@@H](O)C(F)(F)S3(=O)=O)c1 [Compound 80, (R)-4-Bromo-2,2-difluoro-5-(3-fluoro-5-methoxyphenoxy)-3-hydroxy-2,3-dihydrobenzo[b]thiophene 1,1-dioxide]
EC50 [2, 6]: 0.41 µM

SMILES: O=S1(=O)c2ccc(Oc3cccc4cn[nH]c34)c(C(F)F)c2C(O)C1(F)F (stereo not drawn) [Compound 95, 5-((1H-Indazol-7-yl)oxy)-4-(difluoromethyl)-2,2-difluoro-3-hydroxy-2,3-dihydrobenzo[b]thiophene 1,1-dioxide]
EC50 [2, 6]: 6.89 µM

SMILES: N#CC1(COc2ccc3c(c2C(F)F)C(O)C(F)(F)S3(=O)=O)CC1 (stereo not drawn) [Compound 109, 1-(((4-(difluoromethyl)-2,2-difluoro-3-hydroxy-1,1-dioxido-2,3-dihydrobenzo[b]thiophen-5-yl)oxy)methyl)cyclopropane-1-carbonitrile]
EC50 [2, 6]: 6.7 µM

SMILES: CC(C)Oc1ccc2c(c1C#N)C(C)(O)C(F)(F)S2(=O)=O (stereo not drawn) [Compound 110, 2,2-Difluoro-3-hydroxy-5-isopropoxy-3-methyl-2,3-dihydrobenzo[b]thiophene-4-carbonitrile 1,1-dioxide]
EC50 [2, 6]: 5.4 µM

SMILES: N[C@@H]1c2c(ccc(Oc3cc(F)cc(Br)c3)c2Br)S(=O)(=O)C1(F)F [Compound 116, (R)-3-Amino-4-bromo-5-(3-bromo-5-fluorophenoxy)-2,2-difluoro-2,3-dihydrobenzo[b]thiophene 1,1-dioxide]
EC50 [2, 6]: 0.8 µM
